# According to patent US12465050B2, “Compositions comprising a pyridine carboxylate herbicide and protoporphyrinogen oxidase (protox) inhibitor herbicides” (priority 2018, dated 2025):
# What was measured:
# Format in all cases: in vivo
# [1] = system: Viola tricolor (wild pansy); assay: Greenhouse postemergence herbicidal effect on VIOTR
# From the text: (§1) Greenhouse Trial Methodology—Evaluation of Postemergence Herbicidal Effect
# (§2) Seeds of the desired test plant species were planted in a 90:10% v/v (volume/volume) mixture of PRO-MIX® BX (Premier Tech Horticulture, Quakertown, Pa., USA) and PROFILE® GREENS GRADE™ (Profile Products LLC, Buffalo Grove, Ill., USA) planting mixture, which typically has a pH of 5.2 to 6.2 and an organic matter content of at least 50 percent, in plastic pots with a surface area of 103.2 square centimeters (cm^2). In some aspects or embodiments, to help ensure good germination and healthy plants, a fungicide treatment and/or other chemical or physical treatment was applied. The plants were grown for 7-36 days (d) in a greenhouse with an approximate 14-hour (h) photoperiod which was maintained at about 23° C. during the day and 22° C. during the night. Nutrients and water were added on a regular basis and supplemental lighting was provided with overhead metal halide 1000-Watt lamps as necessary. The plants were employed for testing when they reached the second or third true leaf stage.
# (§3) Emulsifiable concentrates of each of each pyridine carboxylate herbicide (Compound A or Compound B) were prepared at 100 grams acid equivalent per liter (g ae/L). The emulsifiable concentrates also included a safener, cloquintocet mexyl, at 120 grams active ingredient per liter (g ai/L). An aliquot of each emulsifiable concentrate was placed in a 25 mL glass vial and diluted with an aqueous mixture of 1.25% (v/v) ACTIROB® B esterified rapeseed oil (Bayer Crop Science, Research Triangle Park, N.C., USA) or MSO® Concentrate with LECI-TECH® methylated soybean oil (Loveland Products, Loveland, Colo., USA) to obtain concentrated stock solutions at the highest application rate for each herbicide, based upon a 12 milliliter (mL) application volume at a rate of 187 liters per hectare (L/ha). The concentrated stock solutions were further diluted with an aqueous mixture of 1.25% v/v ACTIROB® B or MSO® Concentrate with LECI-TECH® to obtain stock solutions at reduced application rates for each herbicide. Spray solutions of the herbicide combinations (Compound A or Compound B plus PROTOX inhibitor herbicide) were prepared by adding weighed amounts or aliquots of the PROTOX inhibitor herbicides to the stock solutions of Compound A or Compound B to form 12-mL spray solutions in two-way combinations.
# (§4) The spray solutions were applied to the plant material with an overhead Mandel track sprayer equipped with 8002E nozzles calibrated to deliver 187 L/ha over an application area of 0.503 square meters (m^2) at a spray height of 18 inches (43 centimeters (cm)) above the average plant canopy. Control plants were sprayed in the same manner with the solvent blank. All pyridine carboxylate herbicide (component a) application rates are given as “g ae/ha” and all PROTOX inhibitor herbicide (component b) application rates are given as “g ai/ha.”
# (§5) The treated plants and control plants were placed in a greenhouse as described above and watered by sub-irrigation to prevent wash-off of the test compounds. After 20-22 d, the condition of the test plants as compared with that of the control plants was determined visually and scored on a scale of 0 to 100 percent where 0 corresponds to no injury and 100 corresponds to complete kill.
# [2] = system: Amaranthus retroflexus (pigweed); assay: Greenhouse postemergence herbicidal effect on AMARE
# From the text: as §1, §2, §3, §4, §5
# [3] = system: Kochia scoparia (kochia); assay: Greenhouse postemergence herbicidal effect on KCHSC
# From the text: as §1, §2, §3, §4, §5
# [4] = system: Sorghum vulgare (sorghum); assay: Greenhouse postemergence herbicidal effect on SORVU
# From the text: as §1, §2
# (§6) Emulsifiable concentrates of each of each pyridine carboxylate herbicide (Compound A or Compound B) were prepared at 100 grams acid equivalent per liter (g ae/L). The emulsifiable concentrates also included a safener, cloquintocet mexyl, at 120 grams active ingredient per liter (g ai/L). […]
# as §5
# [5] = system: Triticum aestivum (spring wheat); assay: Greenhouse postemergence phytotoxicity on crop TRZAS
# From the text: as §1, §2, §3, §4, §5
# [6] = system: Avena fatua (wild oat); assay: Greenhouse postemergence herbicidal effect on AVEFA
# From the text: as §1, §2, §6, §5
# [7] = Compound A 7.5, Oxyfluorfen 0 g/ha
# [8] = Compound A 10, Oxyfluorfen 0 g/ha
# [9] = Compound A 15, Oxyfluorfen 0 g/ha
# [10] = Compound A 7.5, Pyraflufen-ethyl 0 g/ha
# [11] = Compound A 7.5, Saflufenacil 0 g/ha
# [12] = Compound A 10, Pyraflufen-ethyl 0 g/ha
# [13] = Compound A 10, Saflufenacil 0 g/ha
# [14] = Compound A 7.5, Carfentrazone-ethyl 0 g/ha
# [15] = Compound A 7.5, Pyraclonil 0 g/ha
# [16] = Compound A 10, Carfentrazone-ethyl 0 g/ha
# [17] = Compound A 10, Pyraclonil 0 g/ha
compound,measurement,setting,value
"N#CCOC(=O)c1nc(-c2ccc3cc[nH]c3c2F)c(F)c(N)c1Cl [Compound A, cyanomethyl 4-amino-3-chloro-5-fluoro-6-(7-fluoro-1H-indol-6-yl)pyridine-2-carboxylate]","% visual injury, Obs","[1]; Compound A 7.5, Bifenox 0 g/ha",45%
same,"% visual injury, Obs",[1]; [7],13%
same,"% visual injury, Obs","[1]; Compound A 10, Bifenox 0 g/ha",15%
same,"% visual injury, Obs",[1]; [8],15%
same,"% visual injury, Obs",[1]; [9],15%
same,"% visual injury, Obs",[2]; [10],90%
same,"% visual injury, Obs",[2]; [11],88%
same,"% visual injury, Obs",[2]; [12],85%
same,"% visual injury, Obs",[2]; [13],88%
same,"% visual injury, Obs","[3]; Compound A 7.5, Bifenox 0 g/ha",63%
same,"% visual injury, Obs",[3]; [14],50%
same,"% visual injury, Obs",[3]; [7],63%
same,"% visual injury, Obs",[3]; [15],50%
same,"% visual injury, Obs",[3]; [10],70%
same,"% visual injury, Obs","[3]; Compound A 10, Bifenox 0 g/ha",70%
same,"% visual injury, Obs",[3]; [16],58%
same,"% visual injury, Obs",[3]; [8],65%
same,"% visual injury, Obs",[3]; [17],58%
same,"% visual injury, Obs",[3]; [12],70%
same,"% visual injury, Obs",[3]; [9],63%
same,"% visual injury, Obs",[4]; [11],0%
same,"% visual injury, Obs",[4]; [13],0%
same,"% visual injury, Obs",[5]; [14],0%
same,"% visual injury, Obs",[5]; [7],0%
same,"% visual injury, Obs",[5]; [15],0%
same,"% visual injury, Obs",[5]; [10],0%
same,"% visual injury, Obs",[5]; [11],5%
same,"% visual injury, Obs",[5]; [16],0%
same,"% visual injury, Obs",[5]; [8],0%
same,"% visual injury, Obs",[5]; [17],0%
same,"% visual injury, Obs",[5]; [12],0%
same,"% visual injury, Obs",[5]; [13],3%
same,"% visual injury, Obs",[5]; [9],0%
same,"% visual injury, Obs","[6]; Compound A 7.5, Bifenox 0 g/ha",0%
same,"% visual injury, Obs","[6]; Compound A 10, Bifenox 0 g/ha",0%
